# Measurements: article PMC5071372, “Combining biophysical methods to analyze the disulfide bond in SH2 domain of C-terminal Src kinase” (Biophysics Reports, 2016)
# Square brackets hold non-standard residues; d marks the D form. Peptide text beside a SMILES is read from it. pY = N[C@@H](Cc1ccc(OP(=O)(O)O)cc1)C(=O)O
# Assays:
# [1] = system: full-length Csk; settings: ref Kemble and Sun [2009]; cited from earlier work
# Excerpt: Disulfide bonds are mostly found in secretory proteins and in extracellular domains of membrane proteins. Cytosolic proteins, which contain cysteine residues that are in close proximity to each other, may function as oxidation sensors; when the reductive potential of the cell fails, they oxidize and trigger cellular response mechanisms (Sevier and Kaiser [2002]). Mills et al. studied the unique disulfide bond of Csk SH2 that is absent in other known SH2 domains.
# [2] = system: Csk L-SH2 disulfide bond; test: NMR-monitored reduction of oxidized SH2 by DTT; format: physicochemical, human; settings: 10 mmol/L DTT, pH 7.5, NMR
# Excerpt: During purification of the Csk L-SH2 domain, 50 mmol/L DTT was used to elute the protein from the chitin resin. The L-SH2 was used in reduced form, given that DTT was used to cleave L-SH2 from its intein fusion partner. Following elution of the protein from the ion exchange column, the L-SH2 became a mixture of the reduced and oxidized forms. The fully oxidized form was obtained by exposing the protein to air for several days.
# Fig. 3 Comparison of the oxidized and reduced form of SH2. A Comparison of ^1H–^15N HSQC of oxidized (red) and reduced (green) SH2. B Combined chemical shift change of oxidized and reduced form SH2. The difference was calculated as ∆δ tot = [(∆δ H)^2 + (0.154∆δ N)^2]^1/2. […]
# All NMR experiments were performed at 298 K on 800 MHz spectrometers equipped with triple-resonance cryoprobes. […] The combined change in chemical shift of a particular residue upon ligation with the kinase domain was calculated as ∆δ = [(∆δ H)^2 + (0.154∆δ N)^2]^1/2, where ∆δ H and ∆δ N correspond to the changes in amide proton and nitrogen chemical shift, respectively. The weight factor for ^1H and ^15N is determined from the ratio of the average variances of the amide nitrogen and proton chemical shifts observed for the 20 common amino acid residues in proteins deposited in the BioMagResBank (Mulder et al. [1999]). […]
# [3] = molecular target: T1, reduced Csk L-SH2 (Homo sapiens, UniProt P41240); test: Fluorescence titration of reduced Csk L-SH2 with Cbp peptide; format: binding; settings: 10-residue Cbp peptide, Csk SH2, redox form not given
# T1 construct: made in house
# T1 sequence (P41240 73-178): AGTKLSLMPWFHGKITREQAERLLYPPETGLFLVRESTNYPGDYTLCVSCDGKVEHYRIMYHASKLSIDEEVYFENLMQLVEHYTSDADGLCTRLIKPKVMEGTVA
# Description: Fluorescence titrations were performed at 25 °C in 3 mL of 50 mmol/L Tris-HCl (pH 7.5) using excitation and emission wavelengths of 288 nm and 320 nm, respectively. The 10-residue synthetic phosphopeptide corresponding to the specific SH2-binding site in Cbp was titrated with the L-SH2 sample. The typically adopted protein concentration is 5 μmol/L. For the denaturation experiments, ultrapure guanidine hydrochloride (Sigma S0933) was used. Proteins were exposed to guanidine hydrochloride concentrations ranging from 0 to 6 mol/L at 0.1–0.2 mol/L steps. The concentrations of guanidine hydrochloride of the solutions were determined by measuring the index of refraction and by using the following equation: d/d 0 = 1 + 0.2710 W + 0.0330 W ^2 (Tanford et al. [1966]), where W is the weight fraction of guanidine hydrochloride in the solution, d is the density of the solution, and d 0 is the density of water. Reversibility of the guanidine hydrochloride-induced unfolding reaction and the time necessary to re-establish equilibrium were determined by diluting a concentrated protein solution containing 6 mol/L guanidine hydrochloride into the buffer and by monitoring the fluorescence spectrum of the protein as a function of time. […] F unf values were calculated from the linear extrapolation of the pre- and post-unfolding baselines. […]
Compound,activation of Csk [1],time sufficient to reduce the SH2 domain [2],affinity of Cbp peptide for Csk SH2 (in words) [3]
"O[C@@H](CS)[C@@H](O)CS [DTT, reference compound]",mildly activated,≤ 10 h,
CC[C@H](C)[C@H](N)C(=O)N[C@@H](CO)C(=O)N[C@@H](C)C(=O)N[C@@H](CCSC)C(=O)N[C@@H](Cc1ccc(OP(=O)(O)O)cc1)C(=O)N[C@@H](CO)C(=O)N[C@@H](CO)C(=O)N[C@H](C(=O)N[C@@H](CC(N)=O)C(=O)N[C@@H](CCCCN)C(=O)O)C(C)C [Cbp peptide] (H-ISAM[pY]SSVNK-OH),,,affinity at the µmol/L level
